Values after ≈ are worked out from the molar mass of the structure shown. Active and inactive are the calls of the source. The calls are words filed in the database; no cut-off is given here.
Columns and labels:
Tubulin (Homo sapiens) = Tubulin (Homo sapiens) (UniProt P68371+Q9H4B7+P0DPH7+P68366+Q13509+Q71U36+P04350+Q3ZCM7+P07437+P68363+Q9BQE3+Q6PEY2+Q13885+Q9BVA1+Q9BUF5); experiment: Inhibition of tubulin polymerization in human BE2C cells assessed as disruption of fibrous microtubule network at 25 to 100 nM incubated for 24 hrs by immunofluorescence based microscopy; format: cell-based; conditions: dose 25-100 nM
BE(2)-C [1] = experiment: Induction of cell cycle arrest in human BE2C cells assessed as increase in phosphorylated H3 expression by Western blot analysis; format: functional, cell-based; conditions: dose 12.5-50 nM
BE(2)-C [2] = experiment: Induction of apoptosis in human BE2C cells assessed as necrotic cells at 25 nM incubated for 48 hrs by annexin V-FITC/PI staining based flow cytometry (reference value: 3.57 %); format: functional
BE(2)-C [3] = experiment: Induction of apoptosis in human BE2C cells assessed as late apoptotic cells at 25 nM incubated for 48 hrs by annexin V-FITC/PI staining based flow cytometry (reference value: 9.99 %); format: functional
BE(2)-C [4] = experiment: Inhibition of colony formation in human BE2C cells at 100 nM incubated for 36 hrs by gentian violet staining based assay relative to control; format: functional
[5] = Metabolic stability in human liver microsomes assessed as compound remaining incubated for 20 mins; format: ADME, Microsome; conditions: microsomes, 20 min
[6] = target: T1, Protein deacetylase HDAC6 (Homo sapiens, UniProt Q9UBN7); experiment: Inhibition of HDAC6 (unknown origin)
T1 sequence (Q9UBN7 whole entry): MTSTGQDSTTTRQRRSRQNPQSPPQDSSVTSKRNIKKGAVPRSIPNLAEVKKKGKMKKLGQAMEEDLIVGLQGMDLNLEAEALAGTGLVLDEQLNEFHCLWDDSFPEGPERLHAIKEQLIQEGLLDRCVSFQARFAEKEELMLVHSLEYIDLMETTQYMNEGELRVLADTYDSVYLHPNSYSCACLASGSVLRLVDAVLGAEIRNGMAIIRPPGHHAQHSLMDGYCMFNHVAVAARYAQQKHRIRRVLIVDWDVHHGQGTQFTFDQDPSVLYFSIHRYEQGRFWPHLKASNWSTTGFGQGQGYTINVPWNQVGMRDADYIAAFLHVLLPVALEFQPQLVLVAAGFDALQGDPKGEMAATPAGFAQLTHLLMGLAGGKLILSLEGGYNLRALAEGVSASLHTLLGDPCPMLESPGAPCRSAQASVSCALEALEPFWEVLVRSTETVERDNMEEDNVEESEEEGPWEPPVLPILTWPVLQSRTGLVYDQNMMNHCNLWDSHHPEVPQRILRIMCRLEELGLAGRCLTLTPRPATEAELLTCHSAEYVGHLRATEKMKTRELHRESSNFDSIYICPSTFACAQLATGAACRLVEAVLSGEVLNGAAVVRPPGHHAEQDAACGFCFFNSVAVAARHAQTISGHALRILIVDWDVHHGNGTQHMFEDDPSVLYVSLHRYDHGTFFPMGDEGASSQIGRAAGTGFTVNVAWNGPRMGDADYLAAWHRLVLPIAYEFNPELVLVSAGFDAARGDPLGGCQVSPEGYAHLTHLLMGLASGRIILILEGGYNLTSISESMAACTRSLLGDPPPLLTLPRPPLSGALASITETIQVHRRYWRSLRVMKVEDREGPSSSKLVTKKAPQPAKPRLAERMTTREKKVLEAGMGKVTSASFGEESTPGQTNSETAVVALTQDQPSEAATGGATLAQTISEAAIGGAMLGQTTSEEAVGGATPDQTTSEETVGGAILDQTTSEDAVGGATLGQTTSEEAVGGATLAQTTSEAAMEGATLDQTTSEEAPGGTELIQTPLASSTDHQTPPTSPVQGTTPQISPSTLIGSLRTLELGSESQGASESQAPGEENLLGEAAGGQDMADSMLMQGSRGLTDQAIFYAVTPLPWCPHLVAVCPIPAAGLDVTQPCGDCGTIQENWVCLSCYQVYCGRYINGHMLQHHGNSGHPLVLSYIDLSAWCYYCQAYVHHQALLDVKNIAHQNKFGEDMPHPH

BE(2)-C [7] = experiment: Inhibition of colony formation in human BE2C cells incubated for 36 hrs by gentian violet staining based assay; format: functional, cell-based; conditions: dose 25-100 nM
Histone deacetylase 8 = target: T2, Histone deacetylase 8 (Homo sapiens, UniProt Q9BY41); experiment: Inhibition of HDAC8 (unknown origin)
T2 sequence (Q9BY41 whole entry): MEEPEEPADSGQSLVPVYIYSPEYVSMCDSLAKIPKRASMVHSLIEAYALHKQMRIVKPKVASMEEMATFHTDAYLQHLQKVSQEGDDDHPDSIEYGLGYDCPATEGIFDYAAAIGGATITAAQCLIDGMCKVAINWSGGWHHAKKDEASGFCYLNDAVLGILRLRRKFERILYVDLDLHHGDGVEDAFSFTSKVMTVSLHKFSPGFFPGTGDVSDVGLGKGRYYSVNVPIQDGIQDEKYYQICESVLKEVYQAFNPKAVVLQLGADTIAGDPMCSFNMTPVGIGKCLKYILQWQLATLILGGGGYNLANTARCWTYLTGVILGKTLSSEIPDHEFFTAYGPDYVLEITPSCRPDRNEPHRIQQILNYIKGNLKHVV

U-87 MG = experiment: Antiproliferative activity against human U-87 MG cells incubated for 48 hrs by MTT assay; format: functional, cell-based, U-87MG ATCC
BE(2)-C [8] = experiment: Induction of apoptosis in human BE2C cells assessed as early apoptotic cells at 50 nM incubated for 48 hrs by annexin V-FITC/PI staining based flow cytometry (reference value: 4.28 %); format: functional
BE(2)-C [9] = experiment: Induction of apoptosis in human BE2C cells assessed as viable cells at 100 nM incubated for 48 hrs by annexin V-FITC/PI staining based flow cytometry (reference value: 82.16 %); format: functional; conditions: read-out: Activity
[10] = Aqueous solubility of compound at 1 mg incubated for 10 mins; format: physicochemical
A549 = experiment: Antiproliferative activity against human A549 cells incubated for 48 hrs by MTT assay; format: functional, cell-based; conditions: A549, 48 h
BE(2)-C [11] = experiment: Antitumor activity against human BE2C cells xenografted in nude mouse assessed as tumor growth inhibition at 25 mg/kg, ip treated for every 3 days relative to control; format: functional; conditions: 72 h, time 3 day, read-out: TGI
BE(2)-C [12] = experiment: Induction of apoptosis in human BE2C cells assessed as late apoptotic cells at 100 nM incubated for 48 hrs by annexin V-FITC/PI staining based flow cytometry (reference value: 9.99 %); format: functional

COc1ccc([C@H]2[C@H](COC(=O)c3ccc(C(=O)NO)cc3)C(=O)N2c2cc(OC)c(OC)c(OC)c2)cc1O
inhibition (Tubulin (Homo sapiens)): Active | Activity (BE(2)-C [1]): Dose-Dependent Effect | Activity (BE(2)-C [2]): 7.06% | Activity (BE(2)-C [3]): 19.01% | inhibition at 0.1 µM (BE(2)-C [4]): 100% | Stability [5]: 61.3% | IC50 [6]: 1040 nM | inhibition (BE(2)-C [7]): Active | IC50 (Histone deacetylase 8): 177 nM | IC50 (U-87 MG): 56 nM | Activity (BE(2)-C [8]): 12.23% | viability at 0.1 µM (BE(2)-C [9]): 29.2% | solubility at 10 min [10]: 102 µg/mL (≈ 185 µM) | IC50 (A549): 53 nM | inhibition in vivo at 25 mg/kg (BE(2)-C [11]): 67% | Activity (BE(2)-C [12]): 44%
